In article PMC7274539, “The selective glucocorticoid receptor antagonist CORT125281 has tissue-specific activity” (The Journal of Endocrinology, 2020):
pIC50: −log10 of the molar value.

Experiments:
[1] = system: male C57Bl/6J mice; assay: Subchronic corticosterone exposure (pellet): body composition, organ weights, leukocytes, plasma insulin, glucose, lipids; type: in vivo
Protocol: (§1) All studies involving animals were approved by the institutional ethics committee on animal care and experimentation at the Leiden University Medical Center. The 8-week old male C57Bl/6J mice (Charles River) were housed in ventilated cages with a 12 h light:12 h darkness regime and ad libitum access to food and water. In the acute corticosterone exposure experiments, mice received a synthetic chow diet (Research Diets, New Brunswick, NJ, USA) containing vehicle or CORT125281 (6, 20 or 60 mg/kg/day, Corcept Therapeutics, Menlo Park, CA, USA) for 6 days. […] Mice were treated daily with vehicle, 60 mg/kg mifepristone (Corcept Therapeutics) or 60 mg/kg CORT125281 (dissolved in PBS with 0.1% Tween 80 and 0.5% hydroxypropylmethylcellullose, Corcept Therapeutics) via oral gavage for 5 days, after which mice were killed by CO2 inhalation. Throughout the experiment, body weight was monitored and body composition was determined with EchoMRI™ (Frankfurt, Germany). After 5 days, blood was collected from the lateral tail vain in paraoxon-coated capillaries after a 6-h fast. Plasma triglyceride, total cholesterol, free fatty acid, glucose and insulin levels were determined using commercially available kits (Roche; Instruchemie, Delfzijl, Netherlands and Crystal Chem, Zaandam, Netherlands). Blood concentrations of the major leukocyte classes, that is, lymphocytes, monocytes and eosinophils, were determined in whole blood using an automatic veterinary hematology analysis (Sysmex XT-2000iV; Goffin Meyvis, Etten-Leur, the Netherlands).
(§2) In both acute and subchronic corticosterone experiments, relevant tissues (including quadriceps muscle, interscapular BAT, gonadal white adipose tissue (WAT), adrenals, spleen, thymus, pituitary and hippocampus) were collected to determine tissue weight and/or for further molecular analysis.

[2] = system: GR transcriptional activity; assay: Acute corticosterone exposure or basal conditions: RT-qPCR of GR target genes in tissues; type: in vivo, C57Bl/6J mice; conditions: corticosterone 1.5 mg/kg s.c., 1 h; liver, muscle, BAT, WAT, hippocampus; except Sgk1 in muscle, hippocampus and Mt2a in hippocampus
Protocol: as §1, §2
(§3) Total RNA was isolated from snap-frozen tissues using TriPure isolation reagent (Roche). After reverse transcription to cDNA (Promega), RT-qPCR was performed using IQ SYBR-Green supermix and MyIQ thermal cycler (Bio-RAD CFX96). Primers were tested for high efficiency (90–110%) and for amplification of a single PCR product. All primer sequences are listed in Supplementary Table 1 (see section on supplementary materials given at the end of this article), with the exception of Ncor1 and Ncor2 which were purchased from Qiagen. Fold change expression was calculated using the 2^−ΔΔ^CT method.

[3] = system: GR; parameters: method as in Lahteenmaki et al. 1987, Kroon et al. 2018; conditions: half maximal inhibitory concentration of the GR antagonist; ref Lahteenmaki et al. 1987, Kroon et al. 2018; cited from earlier work
[4] = system: HPA-axis activity; parameters: method as in Kroon et al. 2018; conditions: chronic administration via the food; ref Kroon et al. 2018; cited from earlier work
[5] = target: T1, human GR ligand-binding domain (Homo sapiens, UniProt P04150); assay: MARCoNI peptide interaction profiling (coregulator-nuclear receptor interaction); type: biochemical; conditions: for interactions at a number of motifs (dexamethasone-exclusive cluster): 1 µM; for ligand-induced interaction at the majority of coregulator motifs: cortisol 1 µM, dexamethasone 1 µM
T1 construct: purchased Invitrogen PV4689
T1 sequence (P04150 524-758 limits assumed): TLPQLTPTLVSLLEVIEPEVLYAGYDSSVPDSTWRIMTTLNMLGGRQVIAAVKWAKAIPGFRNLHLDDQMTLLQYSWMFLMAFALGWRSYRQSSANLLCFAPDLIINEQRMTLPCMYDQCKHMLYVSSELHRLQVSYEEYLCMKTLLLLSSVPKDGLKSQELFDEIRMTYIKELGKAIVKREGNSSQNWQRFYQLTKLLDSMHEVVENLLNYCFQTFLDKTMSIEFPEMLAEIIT
Protocol: As the assay utilizes human GR, experiments were performed with cortisol rather than corticosterone. […] Incubation was performed at 20°C in a PamStation96 (PamGene International, Den Bosch, Netherlands) for 40 min. Receptor binding to each peptide on the array, reflected by a fluorescent signal, was quantified by analysis of .tiff images using BioNavigator software (PamGene International).

[6] = system: GR transcriptional activity; assay: Subchronic corticosterone exposure: RT-qPCR of GR and insulin target genes in tissues; type: in vivo, C57Bl/6J mice
Protocol: as §1, §2, §3

[7] = system: androgen receptor; conditions: ref Jung-Testas & Baulieu 1983, Gaillard et al. 1984, Kloosterboer et al. 1995, Kroon et al. 2018; cited from earlier work
[8] = system: progesterone receptor; parameters: method as in earlier work; conditions: ref Jung-Testas & Baulieu 1983, Gaillard et al. 1984, Kloosterboer et al. 1995, Kroon et al. 2018; cited from earlier work
[9] = system: GR; conditions: mifepristone; ref Havel et al. 1996, van den Heuvel et al. 2016, Kroon et al. 2018; cited from earlier work
[10] = corticosterone pellet 12.5 mg, 5 days, no antagonist
[11] = corticosterone pellet 5 days, 60 mg/kg/day oral gavage
[12] = mifepristone 0.1 µM, CORT125281 1 µM

Question: For `C[C@]12C[C@H](O)[C@H]3[C@@H](CCC4=CC(=O)CC[C@@]43C)[C@@H]1CC[C@@H]2C(=O)CO` [corticosterone], which “fat mass under subchronic corticosterone exposure” value [1, 10] is on record?
Answer: Its value is “increase”.

Question: What about the “lean mass under subchronic corticosterone exposure” value [1, 10] of the same compound?
Answer: Its value is “reduced”.

Question: And the “plasma insulin under subchronic corticosterone exposure” value [1, 10]?
Answer: The value was “induced hyperinsulinemia”.

Question: And the “spleen weight under subchronic corticosterone exposure” value [1, 10]?
Answer: The value was “decreased”.

Question: What about the Eosinophil count ([1]; corticosterone pellet 5 days, no antagonist) of the same compound?
Answer: The Eosinophil count was “Not detected”.

Question: What about the “expression of GR target genes Fkbp5, Gilz, Sgk1, Mt2a after corticosterone injection” value [2] of the same compound?
Answer: Its value is “upregulated expression of all GR target genes”.

Question: Which results are given for `CC#C[C@]1(O)CC[C@H]2[C@@H]3CCC4=CC(=O)CCC4=C3[C@@H](c3ccc(N(C)C)cc3)C[C@@]21C` [mifepristone]?
Answer: pIC50 [3]: 7.37; endogenous corticosterone levels [4]: suppressed; HOMA-IR [1, 11]: improved; corticosterone-induced decrease of spleen weight [1, 11]: prevented; corticosterone-induced fat mass [1, 11]: non-significantly reduced; corticosterone-induced hyperlipidaemia (plasma triglycerides, total cholesterol) [1, 11]: seemed to modestly reduce; corticosterone-induced immune suppression (total white blood cells, lymphocytes, monocytes, eosinophils) [1, 11]: fully prevented; free fatty acid levels [1, 11]: did not affect; glucose levels [1, 11]: improved; lean mass (reduced by corticosterone) [1, 11]: not altered; corticosterone-induced hyperinsulinemia ([1]; corticosterone pellet 5 days, 60 mg/kg/day oral gavage, 6-h fast): fully prevented; binding of corepressor motifs of NCOR1 and NCOR2 (SMRT) by ligand-GR complex [5, 12]: strongly bound; basal mRNA expression of some GR target genes (Gilz in liver, muscle and BAT; Mt2a in BAT) ([6]; 60 mg/kg/day oral gavage 5 days, sham pellet): reduced; corticosterone-induced expression of GR target genes (Fkbp5, Gilz, Sgk1, Mt2a) ([6]; corticosterone pellet 5 days, 60 mg/kg/day oral gavage, liver, muscle, BAT, WAT, hippocampus): effectively prevented; activity at the androgen receptor [7]: antagonizes; activity at the progesterone receptor [8]: antagonizes; partial agonism at GR [9]: partial agonistic properties

Question: Which “interactions at a number of motifs (dexamethasone-exclusive cluster)” value [5] does the source give for `C[C@@H]1C[C@H]2[C@@H]3CCC4=CC(=O)C=C[C@]4(C)[C@@]3(F)[C@@H](O)C[C@]2(C)[C@@]1(O)C(=O)CO` [dexamethasone] here?
Answer: The value was “induced substantial interactions”.

Question: And the “ligand-induced interaction at the majority of coregulator motifs” value [5, 12]?
Answer: The value was “induced motif binding”.

Question: For `C[C@]12CCC(=O)C=C1CC[C@@H]1[C@@H]2[C@@H](O)C[C@@]2(C)[C@H]1CC[C@]2(O)C(=O)CO` [cortisol], which “interactions at a number of motifs (dexamethasone-exclusive cluster)” value [5] is on record?
Answer: Its value is “without effect”.

Question: And the “ligand-induced interaction at the majority of coregulator motifs” value [5, 12]?
Answer: The value was “induced motif binding”.
